Experimental data from patent EP4549575A1 (priority 2023, dated 2025).
Where two headings read alike, the source gives them in different places. Square brackets hold non-standard residues; d marks the D form. Peptide text beside a SMILES is read from it. βAla = NCCC(=O)O

Experiments:
P. infestans [1] = details: for PGI (%) ± dev. std (Liquid medium): peptide 200 µM, Pea Broth, sporangia, OD620, 72 h, vs untreated control
pronase = test: Stability towards proteolysis (pronase, LC-MS); assay type: in vitro ADME, Streptomyces griseus; details: peptide 200 µM, protease 5 µg/mL, 37°C, pH 7.5; for stability against proteolysis: 0-2 h
Protocol: The evaluation of the stability of CP20 and Ac-LP20 towards proteolysis was tested at a peptide concentration of 200 µM using pronase (commercially available mixture of proteases isolated from the extracellular fluid of Streptomyces griseus, 2.5 µg/mg). Another peptide was added to this analysis, namely LP20 (without N-terminal acetylation), as it is easier to synthesize and to also assess the influence of N-terminal acetylation on the stability of LP20. Each peptide was tested in the presence of the protease (5 µg/mL) at 37°C in a buffer solution (50 mM Tris, 10 mM CaCl2, 150 mM NaCl, 0.05 % (w/v) Brij 35, pH 7.5) and its stability monitored by liquid chromatography coupled to mass spectrometry (LC-MS) at different time intervals (t=0 min, 10 min, 30 min, 1 h, 2 h). To stop enzyme activity, a small amount of the solution (60 µL) was transferred to an HPLC vial containing 6 µL of a 10% TFA solution at these different time points.

P. infestans [2] = assay type: cell-based; details: for PPI: solid medium, linear vs cyclic peptides (Figure 8); for PPI (%) ± dev. std (Solid medium): peptide 200 µM, PAM agar, mycelium plug, 3-4 days, vs untreated control
Escherichia coli DH5α = test: Specificity: growth in liquid culture (OD620); assay type: cell-based; details: 200 µM; LB medium; measured hourly up to 5 h
Protocol: (§1) The specificity of antimicrobial molecules is a key aspect in their development, as good degrees of specificity result in the absence of toxicity to other organisms in the environment such as animals, plants, fungi, bacteria, yeasts, livestock and humans. Therefore, initial assays were carried out to assess the toxicity profiles of CP20 and CP32, similar to those reported in Colombo et al.. For this purpose, the two cyclic peptides were added at a concentration of 200 µM to liquid cultures of the following microorganism species: • (i) Agrobacterium tumefaciens GV3101, (ii) Escherichia coli DH5α and (iii) Saccharomyces cerevisiae. The culture media used were respectively Luria-Bertani (LB) for the bacterial cultures, while Yeast Extract Peptone Dextrose (YEPD) medium was used for S. cerevisiae. Growth was measured hourly (up to 5 h) using a spectrophotometer (OD620).

Saccharomyces cerevisiae = test: Specificity: growth in liquid culture (OD620); assay type: cell-based; details: 200 µM; YEPD medium; measured hourly up to 5 h
Protocol: as §1

P. infestans [3] = assay type: in vivo; details: tomato (Solanum lycopersicum, cv. Marmande) leaf discs; co-inoculation with sporangia; 5-7 days; reference concentration 200 µM
P. viticola = assay type: in vivo, Plasmopara viticola (Berk. et Curt.) Berl. and De Toni; details: grapevine (Vitis vinifera cv. Pinot noir) leaf discs; mean ± standard deviation vs untreated control; concentration not given
P. capsici = assay type: cell-based, Phytophthora capsici Leonian
P. infestans [4] = assay type: cell-based; details: 10 mg/l; Pea Broth; sporangia; OD620, 72 h; positive control
P. infestans [5] = assay type: cell-based; details: 10 mg/l; PAM agar; mycelium plug; 3-4 days; positive control
P. ultimum = assay type: cell-based, Pythium ultimum var. ultimum Trow; details: PDA agar, mycelium; mean ± standard deviation vs untreated control; concentration not given
[6] = from PGI values at 0.02-200 µM, three-parameter logistic model

SMILES: CC(C)C[C@@H]1NC(=O)[C@H](CCCNC(=N)N)NC(=O)CNC(=O)CCNC(=O)[C@H](C(C)C)NC(=O)[C@H](CCCNC(=N)N)NC(=O)[C@H](CC(C)C)NC(=O)[C@H](Cc2c[nH]c3ccccc23)NC(=O)[C@H](CCCNC(=N)N)NC1=O [CP32, βA-G-R-L-R-W-L-R-V] (cyclo(GRLRWLRV[βAla]))
- EC50 (P. infestans [1]; [6]): 16 µM
- EC99 (P. infestans [1]; [6]): 56.18 µM
- PGI (%) ± dev. std (Liquid medium) (P. infestans [1]): 90.61 ± 10.87 (b) %
- time of total proteolysis of the peptide (pronase): 30 min
- stability against proteolysis (pronase): more stable against proteolysis than its linear analogues
- PPI (P. infestans [2]; 200 µM, P. infestans mycelium): 87.44%
- PPI (%) ± dev. std (Solid medium) (P. infestans [2]): 87.93 ± 9.47 (b) %
- bacterial growth (OD620) (Escherichia coli DH5α): no alteration in bacterial growth
- growth inhibition (OD620) (Saccharomyces cerevisiae): no growth inhibition
- Percentage Protection Index for the leaf discs (PPI), reduction in symptoms (P. infestans [3]): 90.03%

SMILES: C#CCOc1ccc(CCNC(=O)C(OCC#C)c2ccc(Cl)cc2)cc1OC (stereo not shown) [Mandipropamid, mandipropamid]
- P. viticola (IPP - %) (P. viticola): 100 ± 0 (a) %
- P. capsici (PIC - %) (P. capsici): 100 ± 0 (a) %
- PGI (%) ± dev. std (Liquid medium) (P. infestans [4]): 100.00 ± 0 (a) %
- PPI (%) ± dev. std (Solid medium) (P. infestans [5]): 100.00 ± 0 (a) %

SMILES: CSCC[C@@H]1NC(=O)[C@H](Cc2c[nH]c3ccccc23)NC(=O)[C@H](CCCNC(=N)N)NC(=O)CCNC(=O)[C@H](CCCNC(=N)N)NC(=O)[C@H](CCCNC(=N)N)NC(=O)[C@H](Cc2ccc(O)cc2)NC(=O)[C@H](C(C)C)NC(=O)[C@H](CC(C)C)NC1=O [CP20, βA-R-W-M-L-V-Y-R-R] (cyclo(LVYRR[βAla]RWM))
- EC99 (P. infestans [1]; [6]): 68.37 µM
- PGI (%) ± dev. std (Liquid medium) (P. infestans [1]): 86.19 ± 8.66 (b) %
- time after which cleavage was observed in the presence of protease (pronase): 2 h
- stability against proteolysis (pronase): good stability against proteolysis
- PPI (%) ± Std. Dev. (P. infestans [2]; 200 µM, P. infestans mycelium, peptidomimetics): 92.39 ± 2.17 (a) %
- PPI (P. infestans [2]; 200 µM, P. infestans mycelium): 89.53%
- PPI (%) ± dev. std (Solid medium) (P. infestans [2]): 88.99 ± 7.56 (b) %
- bacterial growth (OD620) (Escherichia coli DH5α): no alteration in bacterial growth
- growth inhibition (OD620) (Saccharomyces cerevisiae): no growth inhibition
- Percentage Protection Index for the leaf discs (PPI), reduction in symptoms (P. infestans [3]): 88.64%

SMILES: COCC(=O)N(c1c(C)cccc1C)[C@H](C)C(=O)OC [Metalaxyl-M]
- P. ultimum (IPP - %) (P. ultimum): 100 ± 0 (a) %
